In brackets after ≈: the same amount, converted by molar mass. Where two headings read alike, the source gives them in different places. Values belong to the molecule of their own block, whether it stands above or below them.
Columns and labels:
E. coli = assay: high throughput screening assay for antibacterial activity (MIC); format: cell-based; conditions: Escherichia coli, read-out: minimum inhibitory concentrations (MIC's)
From the text: This activity was verified by manual solution synthesis of analytically pure material as described in Example 6 above, which had identical activity.

[1] = test system: 16S rRNA A-site 27-mer RNA model; assay: ESI-FTICR mass spectrometry (MASS) binding to 16S A-site 27-mer RNA model; design: species or system prokaryotic; conditions: for complex formation with 16S A site RNA: aminoglycosides 500 nM each, in words; for Kd: 16S A site 27mer, read-out: MS-measured dissociation constant (KD)
Procedure: (§1) The ESI-FTICR mass spectrum depicted in FIG. 70 was acquired from a […] mixture of untagged 16S and tagged 18S in the presence of an equimolar mixture of five aminoglycosides. It is to be understood that other biomolecules may be used in place of the aminoglycosides. The aminoglycosides have been selected from two classes of 2-deoxystreptamines: 4,5-disubstituted (paromomycin, and lividomycin), and 4,6-disubstituted (tobramycin, sisomicin, and bekanamycin), present at 500 nM each. Complexes corresponding to 1:1 binding of individual aminoglycosides were observed between 16S and all members of the aminoglycoside mixture, with the apparent affinities estimated from the abundances of the respective complexes differing substantially. Signal intensities from the complexes with paromomycin (m/z 1925.572) and lividomycin (m/z 1954.790) are consistent with MS-measured dissociation constants of 110 nM and 28 nM, respectively. The intensities of 16S complexes with tobramycin (m/z 1895.960), bekanamycin (m/z 1899.171), and sisomicin (m/z 1891.972) were reduced, consistent with solution dissociation constants of […]. Wang, et al., Biochemistry, 1997, 36, 768-779. […] The spectrum is calibrated using multiple isotope peaks of the (M−5H^+)^5- and (M−4H^+)^4- charge states of the free RNA as internal mass standards which brackets the m/z range in which complexes are observed. The average mass measurement error obtained for the complexes in FIG. 70 is 2.1 ppm when m/z differences are measured between the most abundant (4 ^13C) isotope peak of 16S and each complex. This post calibration scheme is easily automated which enables rapid, high precision mass measurements of affinity selected ligands against multiple targets in a high throughput mode.
ESI-MS measurements of a solution containing a fixed concentration of RNA at different concentrations of ligand were obtained. By measuring the ratio of bound:unbound RNA at varying ligand concentrations, the Kd was determined by 1/slope of the “titration curve”. The MS derived value of 110 nM is in good agreement with previously reported literature value of 200 nM.
Paromomycin, lividomycin (MW=761.354 Da), sisomicin (MW=447.269 Da), tobramycin (MW=467.2591 Da), and bekanamycin (MW=483.254 Da) were obtained from Sigma (St. Louis, Mo.) and ICN (Costa Mesa, Calif.) and were dissolved to generate 10 mM stock solutions. 2′ methoxy analogs of RNA constructs representing the prokaryotic (16S).rRNA and eukaryotic (18S) rRNA A-site (FIG. 68) were synthesized in house and precipitated twice from 1 M ammonium acetate following deprotection with ammonia (pH 8.5). The mass-tagged constructs contained an 18-atom mass tag (C12H25O9) attached to the 5′-terminus of the RNA oligomer through a phosphodiester linkage.
All mass spectrometry experiments were performed using an Apex 11 70e electrospray ionization Fourier transform ion cyclotron resonance mass spectrometer (Bruker Daltonics, Billerica) employing an actively shielded 7 tesla superconducting magnet. RNA solutions were prepared in 50 mM NH4OAc (pH 7), mixed 1: v:v with isopropanol to aid desolvation, and infused at a rate of […] using a syringe pump. Ions were formed in a modified electrospray source (Analytica, Branford) employing an off axis, grounded electrospray probe positioned ca. 1.5 cm from the metalized terminus of the glass desolvation capillary biased at 5000 V. A counter-current flow of dry oxygen gas heated to 225° C. was employed to assist in the desolvation process. Ions were accumulated in an external ion reservoir comprised of an RF-only hexapole, a skimmer cone, and an auxiliary electrode for 1000 ms prior to transfer into the trapped ion cell for mass analysis. Each spectrum was the result of the coaddition of 16 transients comprised of 256 datapoints acquired over a 90,909 kHz bandwidth resulting in a 700 ms detection interval. […]

[2] = test system: translation of a luciferase plasmid; assay: transcription/translation assay based on expression of a luciferase plasmid; format: biochemical; conditions: inhibition of translation of a luciferase plasmid
Procedure: (§2) The compounds are screened for binding affinity using MASS or conventional high-throughput functional screens. […] The MASS assay was performed with the 27-mer model RNA sequence of the 16S A-site whose NMR structure has been determined. The transcription/translation assay was based on expression of a luciferase plasmid.
(§3) Paromomycin is an aminoglycoside antibiotic known to bind to the A-site RNA structure. The NMR structure was determined with paromomycin bound at the A-site.

[3] = target: decoding region of the prokaryotic 16S rRNA (the A-site); conditions: 16S A-site, read-out: solution dissociation constant (literature), cited from earlier work
[4] = target: 27-mer model RNA sequence of the 16S A-site; assay: MASS assay with the 27-mer model RNA sequence of the 16S A-site (Table 6); format: binding; conditions: 27-mer model RNA of the 16S A-site
Procedure: as §2, §3

[5] = test system: 18S rRNA A-site 27-mer RNA model; assay: ESI-FTICR mass spectrometry binding to mass-tagged 18S A-site 27-mer RNA model; design: species or system eukaryotic; conditions: aminoglycosides 500 nM each, in words
Procedure: as §1, with “The” for “The spectrum is calibrated using multiple isotope peaks of the (M−5H^+)^5- and (M−4H^+)^4- charge states of the free RNA as internal mass standards which brackets the m/z range in which complexes are observed. The”, “This post calibration scheme is easily automated which enables rapid, high precision mass measurements of affinity selected ligands against multiple targets in a high throughput mode.” left out

TAR = conditions: in words, assay not described
luciferase mRNA = assay: wheat germ lysate translation of control luciferase mRNA (luc+9); format: biochemical; conditions: in words
From the text: It is believed that stabilization of mRNA structures near the 5′-cap also could be effected by specific “small” molecules, and that such binding would reduce the translational efficiency of the mRNA. To test this hypothesis, a plasmid was constructed containing the luciferase message behind a 5′-UTR containing a 27-mer RNA construct of the HIV TAR stem-loop bulge whose structure had been determined by NMR.

TAR RNA / tat peptide = assay: disruption of TAR RNA interaction with tat peptide; format: binding, HIV
[6] = test system: HIV TAR RNA structure in the 5'-UTR of luciferase mRNA; assay: wheat germ lysate translation of luciferase mRNA containing the TAR RNA structure in the 5'-UTR; format: biochemical
From the text: It is believed that stabilization of mRNA structures near the 5′-cap also could be effected by specific “small” molecules, and that such binding would reduce the translational efficiency of the mRNA. To test this hypothesis, a plasmid was constructed containing the luciferase message behind a 5′-UTR containing a 27-mer RNA construct of the HIV TAR stem-loop bulge whose structure had been determined by NMR. The resulting mRNA could be expressed and capped in a wheat germ lysate translation system supplemented with T7 polymerase following addition of m^7G to the lysate (see, FIG. 38A). Insertion of a 9-base leader before the TAR structure (HIVluc+9) enhanced the translational efficiency, presumably by allowing the pre-initiation complex to form. The helicase activity associated with the pre-initiation complex can transiently melt out the TAR RNA structure, and the message is translated (see, FIG. 38A).

SMILES: O=C(NO)[C@@H](Cc1ccc2ccccc2c1)NS(=O)(=O)c1ccc2ccccc2c1 [Compound 5-n-ii, (2R)-3-(2-naphthyl)-2-((2-naphthylsulfonyl)amino)propanehydroxamic acid]
MIC (E. coli): 0.7 to 1.5 µM (≈ 0.294 to 0.631 µg/mL)

SMILES: O=C(NO)[C@@H](Cc1ccc2ccccc2c1)NS(=O)(=O)c1ccc(Br)cc1 [Compound 5n-vi, (2R)-2-(((4-bromophenyl)sulfonyl)amino)-3-(2-naphthyl)propanehydroxamic acid]
MIC (E. coli): 3 to 6 µM (≈ 1.35 to 2.7 µg/mL)

complex formation with 16S A site RNA [1]: Weaker complexes
SMILES: CN[C@@H]1[C@@H](O)[C@@H](O[C@@H]2[C@@H](O)[C@H](O[C@H]3OC(CN)=CC[C@H]3N)[C@@H](N)C[C@H]2N)OC[C@]1(C)O [sisomicin]

complex formation with 16S A site RNA [1]: Weaker complexes
SMILES: NC[C@H]1O[C@H](O[C@H]2[C@H](O)[C@@H](O[C@H]3O[C@H](CO)[C@@H](O)[C@H](N)[C@H]3O)[C@H](N)C[C@@H]2N)[C@H](N)[C@@H](O)[C@@H]1O [bekanamycin]

SMILES: NC[C@@H]1O[C@H](O[C@H]2[C@@H](O)[C@H](O[C@@H]3[C@@H](O)[C@H](N)C[C@H](N)[C@H]3O[C@H]3O[C@H](CO)[C@@H](O)[C@H](O)[C@H]3N)O[C@@H]2CO)[C@H](N)[C@@H](O)[C@@H]1O [Paromomycin]
Activity^1 [2]: 0.3 µM
Kd [1]: 110 nM
complex formation with 16S A site RNA [1]: High affinity complexes
Kd ([3]; listed as paromomycin): 200 nM
Kd [3]: ~200 nM
Kd [4]: 500 nM
complex formation with 18S A site RNA [5]: complete absence of complexes

SMILES: NC[C@@H]1O[C@H](O[C@H]2[C@@H](O)[C@H](O[C@@H]3[C@@H](O)[C@H](N)C[C@H](N)[C@H]3O[C@H]3O[C@H](CO)[C@@H](O)C[C@H]3N)O[C@@H]2CO)[C@H](N)[C@@H](O)[C@@H]1O[C@H]1O[C@H](CO)[C@@H](O)[C@H](O)[C@@H]1O [lividomycin]
enhancement of binding affinity for 16S relative to paromomycin [1]: ~4 fold
Kd [1]: 28 nM
complex formation with 16S A site RNA [1]: High affinity complexes
complex formation with 18S A site RNA [5]: complete absence of complexes

complex formation with 16S A site RNA [1]: Weaker complexes
SMILES: NC[C@H]1O[C@H](O[C@H]2[C@H](O)[C@@H](O[C@H]3O[C@H](CO)[C@@H](O)[C@H](N)[C@H]3O)[C@H](N)C[C@@H]2N)[C@H](N)C[C@@H]1O [tobramycin]

SMILES: CNc1ccc(NCCO)c2c1C(=O)c1ccccc1C2=O [ACD 00001199]
IC5, values (TAR): low
inhibition of translation of the luciferase mRNA (control) (luciferase mRNA): some inhibition of translation at very high concentrations
concentration disrupting the TAR RNA interaction with tat peptide (TAR RNA / tat peptide): 1 µM
inhibition of translation of luciferase mRNA containing TAR RNA structure ([6]; in words): dose-dependent inhibition of translation
IC50 ([6]; luciferase mRNA containing the TAR RNA structure in the 5'-UTR, read-out: concentration reducing translation by 50%): 50000 nM
